From patent US11638709B2, “Rucaparib, Talazoparib, Veliparib, Olaparib and AZD 2461 for treating impaired skin wound healing” (AKRIBES BIOMEDICAL GMBH, priority 2017, dated 2023)
“Also recorded” adds a separate entry of the source.

Experiments:
[1] = system: primary human dermal fibroblasts (HDF); assay: Primary human dermal fibroblast (HDF) proliferation assay (2D) with or without wound exudate; assay type: cell-based; conditions: for fibroblast proliferation in the absence of WE: FIG. 11, 2D fibroblast culture without WE (control); for HDF proliferation in the presence of WE #78, combined with PDGF / HDF proliferation in the presence of WE #78 / HDF proliferation in the absence of WE: FIG. 14; for HDF proliferation in the presence of WE #78, combined with PDGF: plus PDGF 20 ng/ml; for HDF proliferation in the presence of WE #78 / HDF proliferation in the absence of WE: veliparib 10 μM, talazoparib 1 μM, PDGF 20 ng/ml; for HDF proliferation in the absence of WE / effect on PDGF-induced induction of proliferation in the absence of WE: no WE; for HDF proliferation with wound exudate #78, plus PDGF / HDF proliferation with wound exudate #78: FIG. 15; for HDF proliferation with wound exudate #78, plus PDGF: compound + PDGF 20 ng/ml in medium + WE #78; for HDF proliferation with wound exudate #78: compound in medium + WE #78; for wound exudate-induced inhibition of fibroblast proliferation: FIG. 20, with wound exudate; for effect on PDGF-induced induction of proliferation in the absence of WE: with PDGF
Procedure: (§1) Primary human dermal fibroblasts (HDF) were purchased from CELLnTEC, Bern. They were routinely grown in Dulbecco's modified Eagle's medium (DMEM) containing 10% FCS, 2 mM glutamine, and 100 U/ml penicillin/100 μg/ml streptomycin. Media, antibiotics, and glutamine were bought from Lonza. The cells were used at passage 5-15. Cells were trypsinized and seeded at 5000 cells/well in 200 μl into the inner wells of 96-well plates. The outer wells were loaded with sterile water. The cells were allowed to adhere overnight and then incubated for 72 hours at 37° C. under the following conditions: graded compound concentrations or 20 ng/ml PDGF-BB (Tonbo Biosciences) in the absence or presence of different dilutions of sterile-filtered WE in medium. For control samples, 200 μl medium was added instead of specific stimuli. Alternatively, the cells were seeded into 384-well plates at 2500 cells/well directly together with test compounds or growth factors and WE or medium in a total volume of […].
At the end of the 72-hour incubation period, supernatants were removed for the determination of IL-1ß, and the cells were fixed with 4% paraformaldehyde (Morphisto) for 15 minutes at room temperature and washed 3 times with PBS. A control plate was fixed after the overnight adherence of the cells (day 1) to determine the starting cell number.
Total cellular protein was determined as a measure of cell number by staining the fixed cells with sulforhodamine B (SRB, Sigma). A 0.4% SRB solution in 1% acetic acid was added to the wells for 30 minutes. The wells were then washed with 1% acetic acid until the wash solution remained colorless. […] The average absorbance of the sample representing the day 1 starting cell number (for 96-well plates) was subtracted from the absorbance values of the WE-treated cells.
All experiments were carried out in triplicate for each sample and concentration, and means±standard deviation (SD) were used for the evaluation of the experiment. Results are expressed as percentage of control values for unstimulated cells.
Low molecular weight compounds (see list in Table 1) were dissolved in DMSO (Bioreagent for cell culture, Sigma) at 10 mM or 100 mM and diluted at least 1:1000 in medium for cellular assays (final DMSO concentration ≤0.1%).
Cells were incubated with compounds for 72 hours in proliferation assays and up to 8 days for FDM assay (refreshed after 4 days). When compounds were tested for their effect on WE stimulation, the incubation of cells with compounds was started and ended simultaneously with WE-incubation.

[2] = system: alpha-smooth muscle actin (α-SMA) in human dermal fibroblasts; assay: Immunolocalization of alpha-smooth muscle actin in 2D HDF culture; assay type: cell-based; conditions: FIG. 16; wound exudates #91 and #55; talazoparib 0.1 μM
Procedure: as §1
After fixation with paraformaldehyde, the cells were incubated for 1 hour at room temperature with a monoclonal mouse-anti-human antibody against alpha-smooth muscle actin (α-SMA) from e-Bioscience, washed 3 times with PBS and developed with an Alexa Fluor-labelled donkey-anti-mouse IgG (Molecular Probes). […]

SMILES	WE-induced inhibition of fibroblast proliferation (2D HDF proliferation) ([1]; FIG. 1, wound exudate #78 (diabetic patient))	human dermal fibroblast proliferation (2D), effect of veliparib ([1]; FIG. 2, WE from patients #49, #43, #78, #27)	fibroblast 2D culture, reproducibility of effect ([1]; FIG. 3, WE samples #77 and #78 of one patient (day 1 and day 8), patient on prednisolone)	2D fibroblast culture (HDF proliferation), effect of PARP inhibitors ([1]; FIG. 8, WE from patient #78)	2D fibroblast culture (HDF proliferation), effect of PARP inhibitors ([1]; FIG. 9, WE from patient #43)	2D fibroblast culture (HDF proliferation), effect of PARP inhibitors ([1]; FIG. 10, WE from patient #78)	fibroblast proliferation in the absence of WE [1]	2D fibroblast culture, PARP inhibitor effect ± dexamethasone ± Vit. C ([1]; FIG. 12, WE from patient #78)	2D fibroblast culture, PARP inhibitor effect ± dexamethasone ± Vit. C ([1]; FIG. 13, WE from patient #43)	HDF proliferation in the presence of WE #78, combined with PDGF [1]	HDF proliferation in the presence of WE #78 [1]	HDF proliferation in the absence of WE [1]	HDF proliferation with wound exudate #78, plus PDGF [1]	HDF proliferation with wound exudate #78 [1]	wound exudate-induced inhibition of fibroblast proliferation [1]	effect on PDGF-induced induction of proliferation in the absence of WE [1]	expression of α-SMA [2]
C[C@]1(c2nc3c(C(N)=O)cccc3[nH]2)CCCN1 [Veliparib, 2-((2R)-2-methylpyrrolidin-2-yl)-1H-benzimidazole-4-carboxamide]	completely reversed inhibition of wound exudate (WE)-induced fibroblast proliferation	most prominent in the two patients with diabetes	reproducible in different samples of the same patient	strong and consistent positive effect	strong and consistent positive effect	strong and consistent positive effect	either no effect on fibroblast proliferation in the absence of wound exudate, or only a marginal effect	strongly beneficial effects	strongly beneficial effects	additively or synergistically enhanced by PDGF	induce proliferation	no or even an inhibitory effect	even further enhanced by the addition of PDGF	dose-dependent increase of HDF proliferation	enhanced cell proliferation	either had no effect on PDGF-induced induction of proliferation or showed inhibition of the PDGF effect	–
Cn1ncnc1[C@H]1c2n[nH]c(=O)c3cc(F)cc(c23)N[C@@H]1c1ccc(F)cc1 [Talazoparib]	–	–	–	strong and consistent positive effect	strong and consistent positive effect	strong and consistent positive effect	weak inhibitory activity; also recorded: either no effect on fibroblast proliferation in the absence of wound exudate, or only a marginal effect	strongly beneficial effects	strongly beneficial effects	additively or synergistically enhanced by PDGF	induce proliferation	no or even an inhibitory effect	even further enhanced by the addition of PDGF	dose-dependent increase of HDF proliferation	enhanced cell proliferation	either had no effect on PDGF-induced induction of proliferation or showed inhibition of the PDGF effect	able to induce expression of α-SMA
